Among the data in ChEMBL document CHEMBL4507268 (2021) are residual activity values, retold here.

Holding throughout (settings): Compound concentration 1000.0 nM
Assay [1] has as its target MAP kinase-interacting serine/threonine-protein kinase 2 (Homo sapiens) (UniProt Q9HBH9).
In assay [2] the target is T1, Serine/threonine-protein kinase DCLK2 (Homo sapiens) (UniProt Q8N568).
T1 sequence (whole entry): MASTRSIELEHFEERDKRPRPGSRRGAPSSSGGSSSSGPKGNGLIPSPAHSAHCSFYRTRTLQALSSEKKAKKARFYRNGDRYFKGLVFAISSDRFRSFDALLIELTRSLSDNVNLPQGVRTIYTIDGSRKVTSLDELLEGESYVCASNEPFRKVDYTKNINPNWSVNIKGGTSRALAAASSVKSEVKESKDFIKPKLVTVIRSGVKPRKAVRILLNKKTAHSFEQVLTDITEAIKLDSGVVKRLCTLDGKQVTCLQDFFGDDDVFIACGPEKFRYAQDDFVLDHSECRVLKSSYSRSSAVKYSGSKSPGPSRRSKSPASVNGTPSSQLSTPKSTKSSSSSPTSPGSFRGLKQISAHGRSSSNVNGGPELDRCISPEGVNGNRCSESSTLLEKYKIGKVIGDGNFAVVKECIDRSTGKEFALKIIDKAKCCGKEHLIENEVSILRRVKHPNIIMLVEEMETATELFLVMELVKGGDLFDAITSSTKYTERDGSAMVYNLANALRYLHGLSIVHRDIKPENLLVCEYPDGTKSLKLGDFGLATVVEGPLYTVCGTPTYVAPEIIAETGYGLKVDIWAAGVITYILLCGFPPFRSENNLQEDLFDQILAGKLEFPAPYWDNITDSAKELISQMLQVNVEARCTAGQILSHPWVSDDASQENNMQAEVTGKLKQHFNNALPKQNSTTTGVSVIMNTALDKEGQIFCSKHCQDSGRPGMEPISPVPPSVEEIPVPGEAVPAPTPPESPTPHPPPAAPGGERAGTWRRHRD

Assay [3] deals with High affinity nerve growth factor receptor (Homo sapiens) (UniProt P04629).
For assay [4], the target named is LIM domain kinase 2 (Homo sapiens) (UniProt P53671).
Assay [5] deals with Mitogen-activated protein kinase 15 (Homo sapiens) (UniProt Q8TD08).
The target of assay [6] is T2, Activin receptor type-1 (Homo sapiens) (UniProt Q04771).
T2 sequence (whole entry): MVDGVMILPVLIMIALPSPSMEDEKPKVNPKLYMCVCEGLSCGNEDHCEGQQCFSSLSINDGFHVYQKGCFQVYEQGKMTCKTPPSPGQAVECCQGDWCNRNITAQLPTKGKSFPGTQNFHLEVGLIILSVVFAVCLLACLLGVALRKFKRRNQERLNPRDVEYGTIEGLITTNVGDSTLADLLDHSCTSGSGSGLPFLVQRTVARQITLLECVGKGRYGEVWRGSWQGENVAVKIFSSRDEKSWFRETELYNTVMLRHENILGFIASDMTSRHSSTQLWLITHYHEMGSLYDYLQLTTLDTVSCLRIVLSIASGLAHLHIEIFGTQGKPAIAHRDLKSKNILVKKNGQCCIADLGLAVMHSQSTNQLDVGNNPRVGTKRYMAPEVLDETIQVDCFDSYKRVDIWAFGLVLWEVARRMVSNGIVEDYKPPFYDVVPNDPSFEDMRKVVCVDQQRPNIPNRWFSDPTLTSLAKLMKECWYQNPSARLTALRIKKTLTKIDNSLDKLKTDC

The test system of assay [7] is Epidermal growth factor receptor (Homo sapiens), P00533 [UNDEFINED MUTATION].
In assay [8] the target is Phosphatidylinositol 3-kinase catalytic subunit type 3 (Homo sapiens) (UniProt Q8NEB9).
Assay [9] deals with Phosphatidylinositol 5-phosphate 4-kinase type-2 gamma (Homo sapiens) (UniProt Q8TBX8).
Assay [10] concerns the target Fibroblast growth factor receptor 4 (Homo sapiens) (UniProt P22455).
Assay [11] has as its system Mast/stem cell growth factor receptor Kit (Homo sapiens), P10721 [D816V].
Assay [12] has as its target T3, SNF-related serine/threonine-protein kinase (Homo sapiens) (UniProt Q9NRH2).
T3 sequence (whole entry): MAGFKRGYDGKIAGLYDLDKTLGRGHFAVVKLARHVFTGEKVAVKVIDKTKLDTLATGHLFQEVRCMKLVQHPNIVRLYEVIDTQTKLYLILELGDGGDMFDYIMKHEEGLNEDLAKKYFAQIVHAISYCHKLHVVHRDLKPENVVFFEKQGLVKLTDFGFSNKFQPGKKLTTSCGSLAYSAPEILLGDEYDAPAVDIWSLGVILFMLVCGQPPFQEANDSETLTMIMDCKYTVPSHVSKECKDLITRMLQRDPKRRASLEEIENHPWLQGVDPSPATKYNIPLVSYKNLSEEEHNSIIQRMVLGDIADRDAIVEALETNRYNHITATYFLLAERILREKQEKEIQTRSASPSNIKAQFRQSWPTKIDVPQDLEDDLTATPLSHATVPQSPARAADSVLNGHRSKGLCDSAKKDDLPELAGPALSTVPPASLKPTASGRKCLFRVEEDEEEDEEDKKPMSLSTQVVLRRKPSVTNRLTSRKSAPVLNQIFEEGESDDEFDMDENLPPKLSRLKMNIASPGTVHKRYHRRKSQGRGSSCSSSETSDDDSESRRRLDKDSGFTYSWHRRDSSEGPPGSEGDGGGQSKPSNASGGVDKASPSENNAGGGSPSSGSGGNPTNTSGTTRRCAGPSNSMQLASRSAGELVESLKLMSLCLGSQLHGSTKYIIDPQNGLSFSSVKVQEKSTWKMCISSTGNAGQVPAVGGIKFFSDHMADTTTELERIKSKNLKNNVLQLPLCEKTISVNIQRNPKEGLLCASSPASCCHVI

Assay [13] addresses Tyrosine-protein kinase receptor UFO (Homo sapiens) (UniProt P30530).
In assay [14] the target is Atypical kinase COQ8A, mitochondrial (Homo sapiens) (UniProt Q8NI60).
The target in assay [15] is Proto-oncogene tyrosine-protein kinase Src (Homo sapiens) (UniProt P12931).
Chain of Proto-oncogene tyrosine-protein kinase Src (Homo sapiens) (P12931 2-536 limits assumed): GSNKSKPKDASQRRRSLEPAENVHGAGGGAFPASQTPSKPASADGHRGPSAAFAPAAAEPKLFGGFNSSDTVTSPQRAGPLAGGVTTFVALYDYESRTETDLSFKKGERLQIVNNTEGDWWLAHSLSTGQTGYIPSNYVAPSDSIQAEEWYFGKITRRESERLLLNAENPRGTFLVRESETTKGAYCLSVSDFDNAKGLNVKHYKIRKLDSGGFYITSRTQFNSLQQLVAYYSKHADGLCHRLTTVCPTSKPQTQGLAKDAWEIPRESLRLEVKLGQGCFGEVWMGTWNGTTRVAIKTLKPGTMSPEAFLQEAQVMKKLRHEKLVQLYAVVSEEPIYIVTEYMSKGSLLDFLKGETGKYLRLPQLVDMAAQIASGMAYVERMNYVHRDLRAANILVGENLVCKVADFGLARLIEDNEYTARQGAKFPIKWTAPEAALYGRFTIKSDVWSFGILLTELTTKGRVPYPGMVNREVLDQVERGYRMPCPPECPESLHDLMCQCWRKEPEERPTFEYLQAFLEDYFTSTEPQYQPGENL

Chain of Epidermal growth factor receptor (Homo sapiens), P00533 [UNDEFINED MUTATION] (P00533 whole entry, looked up, change not shown): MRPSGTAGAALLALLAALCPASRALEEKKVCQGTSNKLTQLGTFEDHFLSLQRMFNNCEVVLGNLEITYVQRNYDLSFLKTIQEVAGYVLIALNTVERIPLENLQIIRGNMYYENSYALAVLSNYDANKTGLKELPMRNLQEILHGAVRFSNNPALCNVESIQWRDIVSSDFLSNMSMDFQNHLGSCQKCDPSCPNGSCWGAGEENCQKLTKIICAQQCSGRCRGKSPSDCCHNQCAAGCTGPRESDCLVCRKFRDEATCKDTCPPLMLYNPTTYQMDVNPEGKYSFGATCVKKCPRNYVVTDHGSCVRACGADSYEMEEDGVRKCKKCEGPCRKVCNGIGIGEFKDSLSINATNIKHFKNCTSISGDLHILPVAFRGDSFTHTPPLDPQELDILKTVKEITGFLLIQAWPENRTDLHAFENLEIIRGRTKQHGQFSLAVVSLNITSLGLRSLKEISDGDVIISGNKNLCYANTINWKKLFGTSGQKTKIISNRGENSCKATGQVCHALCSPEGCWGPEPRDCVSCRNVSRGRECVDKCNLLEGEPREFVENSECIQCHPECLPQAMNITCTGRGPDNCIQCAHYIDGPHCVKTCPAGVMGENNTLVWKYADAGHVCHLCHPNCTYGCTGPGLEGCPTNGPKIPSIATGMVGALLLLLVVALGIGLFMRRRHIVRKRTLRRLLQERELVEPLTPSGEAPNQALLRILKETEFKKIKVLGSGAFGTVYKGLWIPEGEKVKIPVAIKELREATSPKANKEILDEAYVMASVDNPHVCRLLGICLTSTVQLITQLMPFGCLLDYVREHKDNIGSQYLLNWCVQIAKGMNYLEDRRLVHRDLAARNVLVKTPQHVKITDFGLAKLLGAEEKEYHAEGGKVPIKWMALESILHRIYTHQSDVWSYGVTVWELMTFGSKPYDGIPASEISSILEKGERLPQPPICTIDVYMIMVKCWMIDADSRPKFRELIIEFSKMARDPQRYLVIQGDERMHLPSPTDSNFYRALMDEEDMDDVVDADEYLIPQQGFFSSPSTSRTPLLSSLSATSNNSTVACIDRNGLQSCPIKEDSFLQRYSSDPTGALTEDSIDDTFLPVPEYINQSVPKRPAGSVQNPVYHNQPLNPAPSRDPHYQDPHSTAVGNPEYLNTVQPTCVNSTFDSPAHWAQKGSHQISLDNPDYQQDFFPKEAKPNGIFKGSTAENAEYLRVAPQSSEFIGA
Chain of Tyrosine-protein kinase receptor UFO (Homo sapiens) (P30530 whole entry): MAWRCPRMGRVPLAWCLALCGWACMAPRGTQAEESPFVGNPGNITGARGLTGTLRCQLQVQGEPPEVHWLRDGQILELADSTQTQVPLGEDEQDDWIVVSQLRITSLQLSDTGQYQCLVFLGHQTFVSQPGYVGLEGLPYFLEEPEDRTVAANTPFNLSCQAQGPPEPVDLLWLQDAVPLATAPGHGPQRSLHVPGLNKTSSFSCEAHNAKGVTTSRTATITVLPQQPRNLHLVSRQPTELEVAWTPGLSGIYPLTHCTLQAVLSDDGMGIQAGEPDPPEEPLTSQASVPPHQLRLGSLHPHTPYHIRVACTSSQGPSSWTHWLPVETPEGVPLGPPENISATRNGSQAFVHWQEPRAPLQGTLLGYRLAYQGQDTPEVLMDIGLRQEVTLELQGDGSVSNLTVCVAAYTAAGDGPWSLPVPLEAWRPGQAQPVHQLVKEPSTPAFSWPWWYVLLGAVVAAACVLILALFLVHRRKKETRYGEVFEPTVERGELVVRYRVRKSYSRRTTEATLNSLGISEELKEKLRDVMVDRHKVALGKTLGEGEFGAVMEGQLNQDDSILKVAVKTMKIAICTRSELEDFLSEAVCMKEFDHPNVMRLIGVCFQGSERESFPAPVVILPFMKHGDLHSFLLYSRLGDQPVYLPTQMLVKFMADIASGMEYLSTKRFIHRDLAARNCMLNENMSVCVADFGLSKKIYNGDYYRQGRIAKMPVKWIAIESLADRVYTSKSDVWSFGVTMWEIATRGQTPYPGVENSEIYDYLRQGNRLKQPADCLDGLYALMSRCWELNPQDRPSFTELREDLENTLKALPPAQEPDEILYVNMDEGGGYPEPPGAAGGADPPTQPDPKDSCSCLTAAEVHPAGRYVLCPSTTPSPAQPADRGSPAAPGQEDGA
Chain of Phosphatidylinositol 5-phosphate 4-kinase type-2 gamma (Homo sapiens) (Q8TBX8 whole entry): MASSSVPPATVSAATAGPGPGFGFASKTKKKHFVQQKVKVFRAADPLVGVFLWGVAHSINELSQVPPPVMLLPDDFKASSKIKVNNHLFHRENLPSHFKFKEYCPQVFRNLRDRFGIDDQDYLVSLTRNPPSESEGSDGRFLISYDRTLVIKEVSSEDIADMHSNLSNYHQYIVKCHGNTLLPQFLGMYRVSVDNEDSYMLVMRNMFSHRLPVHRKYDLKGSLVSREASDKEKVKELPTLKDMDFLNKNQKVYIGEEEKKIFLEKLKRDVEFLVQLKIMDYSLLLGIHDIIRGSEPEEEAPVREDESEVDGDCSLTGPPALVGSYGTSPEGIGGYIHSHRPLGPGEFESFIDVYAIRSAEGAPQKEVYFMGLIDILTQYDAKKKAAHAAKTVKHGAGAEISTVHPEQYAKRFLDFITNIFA
Chain of MAP kinase-interacting serine/threonine-protein kinase 2 (Homo sapiens) (Q9HBH9 whole entry, looked up): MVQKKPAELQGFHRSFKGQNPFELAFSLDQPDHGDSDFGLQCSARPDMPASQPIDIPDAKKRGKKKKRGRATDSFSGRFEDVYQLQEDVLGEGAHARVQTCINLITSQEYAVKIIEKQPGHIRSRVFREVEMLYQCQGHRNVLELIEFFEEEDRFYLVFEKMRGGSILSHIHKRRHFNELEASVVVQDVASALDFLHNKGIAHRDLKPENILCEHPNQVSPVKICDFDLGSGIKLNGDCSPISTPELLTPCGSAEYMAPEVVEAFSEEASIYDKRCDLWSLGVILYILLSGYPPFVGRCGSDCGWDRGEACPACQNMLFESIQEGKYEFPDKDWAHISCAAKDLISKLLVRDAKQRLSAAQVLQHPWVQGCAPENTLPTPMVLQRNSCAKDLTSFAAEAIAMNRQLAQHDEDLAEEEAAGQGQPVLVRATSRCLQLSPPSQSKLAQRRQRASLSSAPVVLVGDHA
Chain of Mast/stem cell growth factor receptor Kit (Homo sapiens), P10721 [D816V] (P10721 whole entry D816V): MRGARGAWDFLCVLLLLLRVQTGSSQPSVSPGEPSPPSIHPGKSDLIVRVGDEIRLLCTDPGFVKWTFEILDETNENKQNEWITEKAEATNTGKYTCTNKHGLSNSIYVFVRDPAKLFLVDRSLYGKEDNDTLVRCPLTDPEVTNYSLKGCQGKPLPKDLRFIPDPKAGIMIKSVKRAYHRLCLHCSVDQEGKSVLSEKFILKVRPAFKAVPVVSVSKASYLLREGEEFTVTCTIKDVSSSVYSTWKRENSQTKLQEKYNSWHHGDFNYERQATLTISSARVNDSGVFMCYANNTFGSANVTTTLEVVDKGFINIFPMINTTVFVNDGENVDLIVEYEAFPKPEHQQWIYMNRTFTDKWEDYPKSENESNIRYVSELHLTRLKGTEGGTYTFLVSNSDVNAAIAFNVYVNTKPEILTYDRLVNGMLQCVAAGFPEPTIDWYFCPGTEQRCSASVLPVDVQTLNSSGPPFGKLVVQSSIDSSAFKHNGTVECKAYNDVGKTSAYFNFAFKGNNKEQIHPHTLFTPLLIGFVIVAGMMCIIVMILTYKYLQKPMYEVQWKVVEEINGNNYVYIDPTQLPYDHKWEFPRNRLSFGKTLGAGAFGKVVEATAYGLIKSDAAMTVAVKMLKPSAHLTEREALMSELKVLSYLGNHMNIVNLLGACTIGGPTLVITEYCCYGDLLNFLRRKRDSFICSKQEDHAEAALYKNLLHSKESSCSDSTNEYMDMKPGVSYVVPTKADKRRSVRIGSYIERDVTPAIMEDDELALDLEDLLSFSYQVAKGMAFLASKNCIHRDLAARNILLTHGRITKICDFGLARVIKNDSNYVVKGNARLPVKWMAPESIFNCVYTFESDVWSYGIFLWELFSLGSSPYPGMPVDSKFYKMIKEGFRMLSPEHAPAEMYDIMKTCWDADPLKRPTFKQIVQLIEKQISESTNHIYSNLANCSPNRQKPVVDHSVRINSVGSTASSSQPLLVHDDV
Chain of Mitogen-activated protein kinase 15 (Homo sapiens) (Q8TD08 whole entry): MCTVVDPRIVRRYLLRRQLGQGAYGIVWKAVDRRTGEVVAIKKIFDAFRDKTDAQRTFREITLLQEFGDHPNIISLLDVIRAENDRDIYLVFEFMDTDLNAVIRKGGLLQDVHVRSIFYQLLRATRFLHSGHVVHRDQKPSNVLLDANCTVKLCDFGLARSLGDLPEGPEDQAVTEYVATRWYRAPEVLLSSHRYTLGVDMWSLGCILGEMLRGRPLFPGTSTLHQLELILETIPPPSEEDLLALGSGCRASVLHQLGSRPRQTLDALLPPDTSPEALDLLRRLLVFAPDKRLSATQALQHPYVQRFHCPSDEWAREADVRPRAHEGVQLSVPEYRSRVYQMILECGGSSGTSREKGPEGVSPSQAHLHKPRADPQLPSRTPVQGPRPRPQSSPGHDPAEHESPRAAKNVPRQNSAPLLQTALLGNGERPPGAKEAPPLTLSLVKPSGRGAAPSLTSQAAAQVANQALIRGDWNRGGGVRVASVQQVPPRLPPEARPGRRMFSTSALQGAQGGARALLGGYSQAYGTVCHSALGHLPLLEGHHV

For `Cc1nc(C2CCN(C(=O)c3ccc(OC(F)(F)F)cc3N)CC2)c2ncc(N3CCN(C)CC3)cc2n1` [BAY-693], the residual activity in assay [1] was 100%; in [2] it was 100%; in assay [3], 85%; in assay [4], 95%; in assay [5] it was 100%; in assay [6], 100%. Moreover, the residual activity is 49% in [7]; 95% in assay [8]; 100% in assay [9]; 100% in assay [10]; 100% in assay [11]; 78% in [12]. The residual activity in [13] was 100%; in [14], 100%; in [15] it was 99%.
Turning to `CN1CCN(c2cnc3c(C4CCN(C(=O)c5ccc(OC(F)(F)F)cc5N)CC4)ncnc3c2)CC1` [BAY-885], the residual activity in assay [1], in assay [2], in assay [3], in [4], in [5] and in [6] was 100% throughout. The residual activity in [7] is 38%; in assay [8], 100%; in assay [9], 100%; in assay [10], 100%; in assay [11], 100%; in assay [12], 87%. Besides, the residual activity in assay [13] was 78%; in assay [14], 100%; in [15] it was 100%.
